Assay results as given in patent US12629398B2, “Method of alleviating obsessive compulsive disorder symptoms by use of a multi-strain probiotic formulation” (Unique Biotech Limited, priority 2024, dated 2026).
“Also recorded” adds a separate entry of the source. Where a name gives a salt, the structure may show the parent alone.

Experiments:
colon = assay: Colon histopathology (H&E and alcian blue-PAS staining); assay type: in vivo, rat; conditions: quinpirole vs. control, treatments vs. quinpirole-recipient rats
Protocol: (§1) Experimental design was as given in Ref 12, incorporated herein in its entirety. The rats were randomly distributed into 5 different groups, with 6-8 rats per group (FIG. 1). Group 1, referred to as the “Vehicle” group, received the vehicle for a duration of 8 weeks. Group 2, denoted as the “Probiotic” group, received the peroral (PO) multistrain probiotic at a dose of 1× 10^10 CFU per rat for 8 weeks.
To examine the gut permeability, H&E and alcian-blue PAS staining were performed. The method is already described in our publications (Ref 20, 21, and 22), incorporated herein in its entirety. Briefly, sections were processed for deparaffinization with xylene, rehydration with alcohol, and then stained with H&E and alcian blue-PAS agents. Finally, slides were mounted with (DPX) followed by observations under a microscope (Leica-ICC50 W).

quinpirole-injected rats [1] = assay: Self-grooming test, quinpirole OCD model; assay type: in vivo, Wistar rats; conditions: 10 min; quinpirole vs. vehicle; treatments vs. quinpirole group
Excerpt: as §1

IL-6 = assay: Real-time PCR of cytokine mRNA in the amygdala: IL-6; assay type: in vivo, rat; conditions: quinpirole vs. vehicle, treatments vs. quinpirole group
Protocol: as §1
(§2) RT-PCR was performed to analyze the impact of a multistrain probiotic on cytokines mRNA expression (Ref 20, Rahman et al). Briefly, NucleoSpin® RNA isolation kit (#740955.50, DSS Takara Bio India Private Ltd) was used to extract RNA from the rat brain's amygdala. PrimeScript™ 1st strand cDNA synthesis kit (#6110A, DSS Takara Bio India Private Ltd) was used to process these RNA samples to cDNA. The 10 μL reaction mixture was prepared by mixing 5 μL of SYBR Green, 2 μL of the PCR primer (1 μL reverse+1 μL forward) (GCC Biotech, India, Private Ltd.). 1 μL of diluted cDNA template and 2 μL nuclease-free water. For each PCR test, the threshold cycle numbers were averaged across all samples. Using Δ/Δ Ct technique, the relative mRNA expression was calculated. The primers were designed (Table 6) using the software tools NCBI BLAST.

nNOS = assay: Western blot analysis of nNOS in the frontal cortex; assay type: in vivo, rat; conditions: quinpirole vs. vehicle, treatments vs. quinpirole group
Excerpt: as §1
Radioimmunoprecipitation Assay (RIPA) buffer was used to homogenize the frontal cortex part of the rat brain and then resolved using sodium dodecyl sulfate-polyacrylamide gel electrophoresis (SDS-PAGE). The proteins were then transferred to a nitrocellulose membrane, blocked with 5% bovine serum albumin, and incubated with the primary antibody anti-NOS1 (sc-5302, 1:1000 dilution) overnight at 4° C., followed by incubation with horseradish peroxidase-conjugate secondary antibody at RT. The required proteins were then detected by using an ECL solution.

SCFAs = assay: Short-chain fatty acids (SCFAs) in fecal samples by GC-FID; assay type: in vivo, rat; conditions: treatments given in quinpirole rats, compared to OCD, unit from Table 7
Excerpt: as §1
The gas chromatography-flame ionization detection (GC-FID) was used to evaluate the effect of OCD on bacterial metabolites as described earlier in our publications (Ref 22, Rahman et al & Ref 23, Satti et al). Briefly, supernatant acidified with HCL (5 M) and then extracted in diethyl ether to estimate the SCFAs. The acetate, propionate, and butyrate levels were estimated by loading the known amount of each SCFA.

quinpirole-injected rats [2] = assay: Marble burying test, quinpirole OCD model; assay type: in vivo, Wistar rats; conditions: 10 min; quinpirole vs. control; quinpirole effect among rats that received probiotic or fluoxetine
Excerpt: as §1

quinpirole-injected rats [3] = assay: Elevated plus maze (EPM) test, anxiety-like behavior, quinpirole OCD model; assay type: in vivo, Wistar rats; conditions: fluoxetine 10 mg/kg peroral 6 weeks with quinpirole
Excerpt: as §1

quinpirole-injected rats [4] = assay: Hole board test, quinpirole OCD model; assay type: in vivo, Wistar rats; conditions: 5-minute session; quinpirole vs. vehicle; treatments in quinpirole rats
Excerpt: as §1

CRP = assay: Real-time PCR of cytokine mRNA in the amygdala: CRP; assay type: in vivo, rat; conditions: quinpirole vs. vehicle, treatments vs. quinpirole group
Protocol: as §1, §2

TNF-α = assay: Real-time PCR of cytokine mRNA in the amygdala: TNF-α; assay type: in vivo, rat; conditions: quinpirole vs. vehicle, treatments vs. quinpirole group
Protocol: as §1, §2

Row | SMILES | number of mature goblet cells (colon) | villus height/crypt depth ratio (colon) | self-grooming activity (number of grooming episodes, score) (quinpirole-injected rats [1]) | mRNA expression of IL-6 (IL-6) | expression of nNOS (nNOS) | butyrate level (SCFAs) [µg/mL] | propionate level (SCFAs) [µg/mL] | number of marbles buried (increase by quinpirole) (quinpirole-injected rats [2]) | open-arms activity (quinpirole-injected rats [3]) | head dipping activity (quinpirole-injected rats [4]) | mRNA expression of CRP (CRP) | mRNA expression of TNF-α (TNF-α)
1 | CNCCC(Oc1ccc(C(F)(F)F)cc1)c1ccccc1 (stereo not shown) [Fluoxetine, fluoxetine] | significantly increased | significantly increased | did not notice any change | prevents | significantly reduced; also recorded: decreased | 3.39 ± 0.32 | 2.99 ± 0.55 | nonsignificant | improved | less response | prevents | prevents
2 | CCCN1CCC[C@@H]2Cc3n[nH]cc3C[C@H]21 [Quinpirole, (−)-Quinpirole hydrochloride] |  |  |  |  |  |  |  |  |  |  | significant increase | 
